According to ChEMBL document CHEMBL1201862, “PubChem BioAssay data set” (2004):
Activity calls are given as the source filed them. Rule as the data show it, for most assays here: actives have a measured EC50 and inactives only a lower limit.

Columns and labels:
[1] = target: T1, Rac GTPase-activating protein 1 (Homo sapiens, UniProt Q9H0H5); assay: MgcRacGAP GTPase-activating activity inhibitors, confirmation, biochemical, ADP Hunter fluorescence, primary and confirmatory (AID 624330); type: functional
T1 sequence (Q9H0H5 whole entry): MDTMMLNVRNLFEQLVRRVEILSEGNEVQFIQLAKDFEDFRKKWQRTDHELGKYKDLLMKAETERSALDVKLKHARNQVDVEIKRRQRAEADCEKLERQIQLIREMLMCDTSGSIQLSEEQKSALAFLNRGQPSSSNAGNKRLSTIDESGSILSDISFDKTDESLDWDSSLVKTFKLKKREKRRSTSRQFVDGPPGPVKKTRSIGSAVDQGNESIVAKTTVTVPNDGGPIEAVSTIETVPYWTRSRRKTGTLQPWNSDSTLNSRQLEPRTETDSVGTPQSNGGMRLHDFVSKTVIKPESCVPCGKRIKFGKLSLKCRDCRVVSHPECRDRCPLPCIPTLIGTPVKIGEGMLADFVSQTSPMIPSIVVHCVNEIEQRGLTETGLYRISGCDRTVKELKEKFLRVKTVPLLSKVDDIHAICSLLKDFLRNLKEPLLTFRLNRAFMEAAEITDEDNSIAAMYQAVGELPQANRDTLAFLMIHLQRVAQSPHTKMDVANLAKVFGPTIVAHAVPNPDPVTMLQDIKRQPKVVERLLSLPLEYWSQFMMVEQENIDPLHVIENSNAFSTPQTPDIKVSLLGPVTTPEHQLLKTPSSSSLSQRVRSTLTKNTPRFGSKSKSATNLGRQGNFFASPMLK

cells [2] = type: functional, cell-based
cells [3] = type: functional, cell-based; remark: listed apart in the source
[4] = Luminescence Cell-Based Dose Confirmation HTS to Identify Activators of 5'UTR Stem-Loop Driven Alpha-Synuclein mRNA Translation in H4 Neuroglioblastoma Cells. [Related pubchem assays: 1829 (Project Summary), 1814 (Primary HTS)]; type: functional
[5] = Luminescence Cell-Based Dose Response HTS to Identify Activators of Luciferase Translation or Activity in H4 […] Cells. [Related pubchem assays: 1829 (Project Summary), 1814 (Primary HTS)]; type: functional
H4 = assay: Luminescence Cell-Based Dose Response HTS to Identify Activators of 5'UTR Stem-Loop Driven Prion Protein mRNA Translation in H4 Neuroglioblastoma Cells. [Related pubchem assays: 1829 (Project Summary), 1814 (Primary HTS)]; type: functional; conditions: Homo sapiens
[6] = inhibitors of intracellular T. cruzi replication, confirmation, NIH3T3 host cells, beta-gal luminescence (AID 2044); type: functional, cell-based;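 also: intracellular parasites grown in NIH/3T3 mouse fibroblasts as host cells; luminescent beta-galactosidase reporter signal from transgenic T. cruzi replicating inside host cells; inhibitors lower the luminescence signal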
[7] = cytotoxicity toward NIH3T3 fibroblasts, dose response, counter-screen, cell-based, ATP luminescence, mouse fibroblasts (AID 2010); type: functional;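 also: cells exposed to compound for about 90 hours before reading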
INS1 = assay: beta cell apoptosis inhibitors, cytokine rescue, dose response, luminescence, retest (AID 449756); type: functional, cell-based; conditions: Rattus norvegicus;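 also: cell death triggered by IL-1 beta plus TNF-alpha plus IFN-gamma mixture; protective hits raise ATP signal compared with cytokine alone wells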
[8] = target: T2, Replicative DNA helicase DnaB (Mycobacterium tuberculosis, UniProt P9WMR3); assay: DnaB intein splicing inhibitors, dose response, biochemical, cell-free fluorescence (AID 449749); type: functional
T2 sequence (P9WMR3 whole entry): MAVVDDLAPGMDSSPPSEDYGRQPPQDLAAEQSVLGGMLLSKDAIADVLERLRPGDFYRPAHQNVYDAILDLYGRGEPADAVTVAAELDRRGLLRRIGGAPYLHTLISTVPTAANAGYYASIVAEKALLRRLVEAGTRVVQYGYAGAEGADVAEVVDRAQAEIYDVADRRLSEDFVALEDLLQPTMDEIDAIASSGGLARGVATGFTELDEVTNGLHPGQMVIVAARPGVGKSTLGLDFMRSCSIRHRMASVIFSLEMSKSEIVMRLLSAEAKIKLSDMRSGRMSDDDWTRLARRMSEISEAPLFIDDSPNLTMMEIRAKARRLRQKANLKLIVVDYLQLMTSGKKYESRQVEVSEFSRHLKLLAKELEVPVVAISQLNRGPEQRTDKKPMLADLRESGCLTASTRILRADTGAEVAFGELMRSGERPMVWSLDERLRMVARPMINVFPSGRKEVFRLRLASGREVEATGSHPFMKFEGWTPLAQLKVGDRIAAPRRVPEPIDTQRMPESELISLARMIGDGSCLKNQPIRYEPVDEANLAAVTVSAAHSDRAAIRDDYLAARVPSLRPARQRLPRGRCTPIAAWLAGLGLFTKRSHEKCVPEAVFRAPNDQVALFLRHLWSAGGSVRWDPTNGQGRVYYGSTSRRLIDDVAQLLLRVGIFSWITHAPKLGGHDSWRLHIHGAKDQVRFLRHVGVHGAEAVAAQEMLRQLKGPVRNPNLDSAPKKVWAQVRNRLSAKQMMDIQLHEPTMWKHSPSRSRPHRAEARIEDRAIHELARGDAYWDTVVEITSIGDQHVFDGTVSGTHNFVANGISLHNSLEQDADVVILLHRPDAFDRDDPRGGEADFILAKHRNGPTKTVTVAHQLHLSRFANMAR

Protein RecA = target: T3, Protein RecA (Mycobacterium tuberculosis, UniProt P9WHJ3); assay: Fluorescence Cell-Free Homogeneous Dose Retest to Identify Inhibitors of RecA-Intein Splicing Activity. [Related pubchem assays (depositor defined):AID2097, AID2223, AID489010, AID492950]; type: functional
T3 sequence (P9WHJ3 whole entry): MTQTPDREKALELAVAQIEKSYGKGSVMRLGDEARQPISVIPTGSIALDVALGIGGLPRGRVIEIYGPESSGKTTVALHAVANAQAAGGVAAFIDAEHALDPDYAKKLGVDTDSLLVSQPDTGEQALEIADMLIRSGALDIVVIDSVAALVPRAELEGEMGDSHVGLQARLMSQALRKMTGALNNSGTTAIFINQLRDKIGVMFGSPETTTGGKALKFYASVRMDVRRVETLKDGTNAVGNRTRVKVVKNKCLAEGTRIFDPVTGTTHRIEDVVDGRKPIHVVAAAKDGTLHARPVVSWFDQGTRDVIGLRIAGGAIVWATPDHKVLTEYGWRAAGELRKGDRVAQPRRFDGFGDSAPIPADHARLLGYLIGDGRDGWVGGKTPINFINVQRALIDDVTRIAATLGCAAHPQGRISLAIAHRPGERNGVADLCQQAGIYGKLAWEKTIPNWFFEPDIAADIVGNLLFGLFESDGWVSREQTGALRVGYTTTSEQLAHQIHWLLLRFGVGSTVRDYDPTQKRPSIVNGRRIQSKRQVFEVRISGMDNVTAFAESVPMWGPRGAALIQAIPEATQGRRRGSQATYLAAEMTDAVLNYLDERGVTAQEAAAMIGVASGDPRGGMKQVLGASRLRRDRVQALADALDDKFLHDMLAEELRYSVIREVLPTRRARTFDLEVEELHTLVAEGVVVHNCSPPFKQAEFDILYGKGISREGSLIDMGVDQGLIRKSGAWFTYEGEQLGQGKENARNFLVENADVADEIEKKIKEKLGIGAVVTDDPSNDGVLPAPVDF

[9] = target: T4, Heat shock factor protein 1 (Mus musculus, UniProt P38532); assay: HSF1 potentiators in luciferase reporter cells, confirmation, cell-based, NIH3T3, luminescence, dose retest (AID 435004); type: functional;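 also: stress induced by proteasome inhibitor MG132 added 30 min after compound; luciferase reporter driven by HSF1 response element in NIH3T3 cells; actives raise luminescence as potentiators of the MG132 stress response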
T4 sequence (P38532 whole entry): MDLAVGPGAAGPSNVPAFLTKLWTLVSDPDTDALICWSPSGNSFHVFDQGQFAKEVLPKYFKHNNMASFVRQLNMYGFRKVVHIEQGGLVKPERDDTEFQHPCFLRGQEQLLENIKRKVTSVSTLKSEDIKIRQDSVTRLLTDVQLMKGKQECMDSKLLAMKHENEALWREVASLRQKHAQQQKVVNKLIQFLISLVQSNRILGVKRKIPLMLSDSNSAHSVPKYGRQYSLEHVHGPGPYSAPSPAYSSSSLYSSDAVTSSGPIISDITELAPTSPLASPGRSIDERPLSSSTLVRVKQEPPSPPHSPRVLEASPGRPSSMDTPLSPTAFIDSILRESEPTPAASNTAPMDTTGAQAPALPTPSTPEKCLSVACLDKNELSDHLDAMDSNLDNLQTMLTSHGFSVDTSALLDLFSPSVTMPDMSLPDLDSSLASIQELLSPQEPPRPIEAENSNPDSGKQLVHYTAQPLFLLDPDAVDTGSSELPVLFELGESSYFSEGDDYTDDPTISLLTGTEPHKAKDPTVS

## COc1ccc(NC2CCCN(C(=O)c3ccc4[nH]c(C)c(C)c4c3)C2)cc1 (stereo unspecified)
[1]
  IC50: 81.4 µM (active)

## COc1cc(NC(=O)CN2C(=O)c3ccccc3Sc3ccc(C(=O)N4CCOCC4)cc32)cc(OC)c1OC
Cells [2]
  EC50: > 350 µM (not active)
Cells [3]
  EC50: > 350 µM (not active)

## CCN1CCN(C(S)=NCC2CCCO2)CC1 (stereo unspecified)
[1]
  IC50: 186 µM (active)

## Cc1cccc(Nc2c(-c3ccc(O)cc3)nc3ncccn23)c1
[1]
  IC50: 32.1 µM (active)

## CCc1ccc2nc(O)c(CN(Cc3ccccc3OC)C(=O)Nc3ccccc3OC)cc2c1
[4]
  EC50: 111 µM (active)
[5]
  EC50: > 120 µM (not active)
H4
  EC50: 111 µM (active)
[6]
  EC50: 3 µM (active)
[7]
  EC50: > 60 µM (not active)

## Cc1nnc2ccc(Oc3ccc(-c4ccccc4)cc3)nn12
INS1
  AC50: 6.58 µM (active)
[1]
  IC50: 99.4 µM (active)

## Cc1ccc(OCCCCNC(C)(C)C)c([N+](=O)[O-])c1
[1]
  IC50: 141 µM (active)

## CCCS(=O)(=O)N1CCN(Cc2ccco2)CC1
[1]
  IC50: 130 µM (active)

## Cc1ccc(OC(C)C(=O)N2CC(=O)Nc3ccccc32)cc1 (stereo unspecified)
Cells [2]
  EC50: > 350 µM (not active)
Cells [3]
  EC50: > 350 µM (not active)

## O=[N+]([O-])c1cccc(/C=N/n2cnnc2)c1
INS1
  AC50: > 260 µM (inactive)

## C(/CCc1ccccc1)=N\Nc1nc2ccccc2[nH]1
Cells [2]
  EC50: 92.2 µM (active)
Cells [3]
  EC50: 35.8 µM (active)
INS1
  AC50: 5.2 µM (active)

## CCSc1cc(C)nc2c(-c3ccccc3)cnn12
Cells [2]
  EC50: > 350 µM (not active)
Cells [3]
  EC50: 23.1 µM (active)

## Cc1ccc(COC(=O)Cc2coc3cc(O)ccc23)cc1
[1]
  IC50: 30.1 µM (active)

## Oc1ccc(-c2cn3c(n2)SCC3)cc1
[1]
  IC50: 18.9 µM (active)

## COC(=O)COc1c(Cl)cc(C(c2c(C)n[nH]c2O)c2c(C)n[nH]c2O)cc1OC
[8]
  AC50: 0.47 µM (active)
Protein RecA
  EC50: 0.158 µM (active)

## Cc1ccc(-n2cc(CN3CCC(CO)(Cc4ccccc4)CC3)cn2)cc1
Cells [2]
  EC50: > 350 µM (not active)
Cells [3]
  EC50: > 350 µM (not active)

## O=C(c1c[nH]c(C(=O)C(Cl)(Cl)Cl)c1)c1ccc(F)cc1F
[8]
  AC50: 21.2 µM (active)
Protein RecA
  EC50: 7.8 µM (active)

## Cc1occc1C(=O)N/N=C/c1c(O)ccc2ccccc12
Cells [2]
  EC50: 69 µM (active)
Cells [3]
  EC50: 9.8 µM (active)
INS1
  AC50: 1.25 µM (active)

## O=C(Cn1nc(-c2ccccc2Cl)ccc1=O)Nc1ccccc1-c1ccccc1
Cells [2]
  EC50: > 350 µM (not active)
Cells [3]
  EC50: > 350 µM (not active)
[9]
  EC50: 120 µM (active)

## CCCCCn1c(=O)c(C(=O)NCc2ccccc2Cl)c(O)c2ccccc21
INS1
  AC50: 8.04 µM (active)

## Cc1[nH]nc(O)c1C(c1ccc(Cl)cc1)c1c(O)n[nH]c1C
[8]
  AC50: 1.27 µM (active)
Protein RecA
  EC50: 0.461 µM (active)

## COc1cc(C2C(C#N)=C(N)Oc3[nH]nc(-c4cccnc4)c32)ccc1OCC(N)=O (stereo unspecified)
[8]
  AC50: 48.5 µM (active)
Protein RecA
  EC50: 3.16 µM (active)

## Cc1cc(C)c2c(N)c(C(=O)Nc3cccc(C)c3C)sc2n1
[4]
  EC50: > 120 µM (not active)
[5]
  EC50: 3.92 µM (active)
H4
  EC50: > 120 µM (not active)

## CC(=O)n1c2c(c3ccccc31)OC(N)=C(C#N)C2c1ccc(C(C)C)cc1 (stereo unspecified)
[4]
  EC50: 11.7 µM (active)
[5]
  EC50: 10 µM (active)
H4
  EC50: 16.2 µM (active)

## COc1ccnc(N=CNOCc2ccc(C)cc2)c1C#N
[4]
  EC50: 14.7 µM (active)
[5]
  EC50: 12.5 µM (active)
H4
  EC50: 55.5 µM (active)

## CCCc1cc2c(=O)c(-c3ccc4c(c3)OCCO4)coc2cc1OS(C)(=O)=O
[4]
  EC50: 0.103 µM (active)
[5]
  EC50: < 0.195 µM (inconclusive)
H4
  EC50: > 120 µM (not active)

## Cc1ccc(S(=O)(=O)Nc2cc(-c3ccc(Cl)cc3)nn2C)cc1
Cells [2]
  EC50: > 350 µM (not active)
Cells [3]
  EC50: > 350 µM (not active)

## O=C(CSc1nnnn1C1CC1)N1CCN(c2ccc(O)cc2)CC1
[1]
  IC50: 30.8 µM (active)
